Source: patent US20050095240A1, “NaCT as a target for lifespan expansion and weight reduction” (Medical College of Georgia Research, priority 2002, published 2005)
Where two headings read alike, the source gives them in different places.

How the values were obtained:
rat NaCT [1] = target: T1, rat NaCT (Rattus norvegicus, UniProt Q8CJ44); test: Uptake via rat NaCT expressed in HRPE cells; assay type: cell-based
T1 sequence (Q8CJ44 1-572): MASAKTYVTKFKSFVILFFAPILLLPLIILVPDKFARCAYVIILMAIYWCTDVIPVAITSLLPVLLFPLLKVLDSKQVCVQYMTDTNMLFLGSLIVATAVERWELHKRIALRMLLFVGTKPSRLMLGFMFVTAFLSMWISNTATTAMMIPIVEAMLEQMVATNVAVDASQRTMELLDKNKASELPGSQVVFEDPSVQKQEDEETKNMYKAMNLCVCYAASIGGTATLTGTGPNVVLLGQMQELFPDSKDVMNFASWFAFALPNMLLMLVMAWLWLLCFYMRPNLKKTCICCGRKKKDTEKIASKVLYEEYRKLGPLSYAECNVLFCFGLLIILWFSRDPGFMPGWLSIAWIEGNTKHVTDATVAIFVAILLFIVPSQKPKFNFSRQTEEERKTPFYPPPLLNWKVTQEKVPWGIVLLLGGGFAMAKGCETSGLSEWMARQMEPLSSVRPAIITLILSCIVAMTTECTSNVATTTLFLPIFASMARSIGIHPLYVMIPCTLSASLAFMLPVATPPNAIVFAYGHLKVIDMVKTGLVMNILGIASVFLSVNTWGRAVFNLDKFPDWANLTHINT

[2] = cited from earlier work
ceNaCT = target: T2, ceNaCT (Caenorhabditis elegans, UniProt P32739, I91S/L182M); test: Uptake via ceNaCT expressed in HRPE cells
T2 sequence (P32739 1-551 I91S/L182M): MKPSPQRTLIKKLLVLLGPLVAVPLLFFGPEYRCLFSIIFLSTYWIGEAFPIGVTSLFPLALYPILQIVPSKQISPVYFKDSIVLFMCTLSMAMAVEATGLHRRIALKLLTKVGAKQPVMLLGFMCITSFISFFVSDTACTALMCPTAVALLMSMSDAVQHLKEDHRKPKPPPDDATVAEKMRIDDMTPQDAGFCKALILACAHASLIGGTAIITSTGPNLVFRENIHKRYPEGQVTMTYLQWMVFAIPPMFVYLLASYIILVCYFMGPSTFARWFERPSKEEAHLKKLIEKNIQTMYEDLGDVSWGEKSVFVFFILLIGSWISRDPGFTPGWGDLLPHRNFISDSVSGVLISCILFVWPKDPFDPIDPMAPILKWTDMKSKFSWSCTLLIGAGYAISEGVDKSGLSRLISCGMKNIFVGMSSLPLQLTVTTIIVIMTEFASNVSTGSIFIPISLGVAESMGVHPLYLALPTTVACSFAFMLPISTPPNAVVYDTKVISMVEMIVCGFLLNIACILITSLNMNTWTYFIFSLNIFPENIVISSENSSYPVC

mouse NaCT = target: T3, mouse NaCT (Mus musculus, UniProt Q67BT3); test: Transport via mouse NaCT expressed in HRPE cells; assay type: cell-based
T3 sequence (Q67BT3 1-572): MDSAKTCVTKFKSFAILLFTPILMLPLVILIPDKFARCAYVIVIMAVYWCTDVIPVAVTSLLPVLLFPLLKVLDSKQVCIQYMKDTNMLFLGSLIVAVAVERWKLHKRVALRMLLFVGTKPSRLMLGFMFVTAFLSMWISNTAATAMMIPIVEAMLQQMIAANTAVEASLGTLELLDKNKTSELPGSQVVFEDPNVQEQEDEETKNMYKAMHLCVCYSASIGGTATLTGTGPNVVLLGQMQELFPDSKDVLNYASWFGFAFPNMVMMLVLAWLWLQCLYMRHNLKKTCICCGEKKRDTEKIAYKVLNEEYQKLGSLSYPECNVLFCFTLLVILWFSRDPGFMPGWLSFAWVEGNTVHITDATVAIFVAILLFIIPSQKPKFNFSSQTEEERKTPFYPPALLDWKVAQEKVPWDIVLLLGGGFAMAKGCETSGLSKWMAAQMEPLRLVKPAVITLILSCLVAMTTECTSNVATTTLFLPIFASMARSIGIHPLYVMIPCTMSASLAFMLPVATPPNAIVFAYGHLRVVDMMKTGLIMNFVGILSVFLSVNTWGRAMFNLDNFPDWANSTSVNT

human NaCT = human NaCT (Homo sapiens, UniProt Q86YT5); test: Uptake via human NaCT expressed in HRPE cells; assay type: cell-based
NaCT in HepG2 cells = target: T4, NaCT in HepG2 cells (Homo sapiens, UniProt Q86YT5); test: Citrate uptake in HepG2 cells (constitutively expressed NaCT); assay type: cell-based
T4 construct: the effect of Li^+ on constitutively expressed NaCT in human liver cells was studied; host or cells: HepG2
Method: Uptake measurement in human liver cell lines. The human liver cell lines (HepG2 and Huh-7) were cultured to confluency in 24-well culture plates using appropriate culture medium. The HepG2 cell line was obtained from American Type Culture Collection (Manasses, Va.). The Huh-7 cell line (Bode et al., (2002) Am. J. Physiol. 283, G1062-G1073) was provided by Dr. Barrie P. Bode (St. Louis University, St. Louis, Mo.). Uptake measurements in monolayer cultures of these cells were measured as described above for the heterologously expressed NaCTs.

zebrafish NaCT = zebrafish NaCT (Danio rerio, UniProt A0A2R8QQN0, K78Q); test: Citrate uptake via zebrafish NaCT expressed in HRPE cells; assay type: cell-based; conditions: for Citrate uptake, zfNaCT, percent of corresponding control: 30 min
rat NaCT [3] = target: T1, rat NaCT; test: Rat NaCT in X. laevis oocytes, voltage clamp and charge-to-substrate ratio; assay type: cell-based
drIndy = drIndy (Drosophila melanogaster, UniProt Q9VVT2); conditions: for cDNA-specific [^3H] succinate uptake: pH 7.5
[4] = substrate: O=C(O)CC(O)(CC(=O)O)C(=O)O; test: cells, lysate or membranes; conditions: other: pH 7.5, 37.0 °C
[5] = Li+ 2 mM, valproate 0.6 μM, carbamazepine 50 μM

Sequence of drIndy (Q9VVT2 19-590): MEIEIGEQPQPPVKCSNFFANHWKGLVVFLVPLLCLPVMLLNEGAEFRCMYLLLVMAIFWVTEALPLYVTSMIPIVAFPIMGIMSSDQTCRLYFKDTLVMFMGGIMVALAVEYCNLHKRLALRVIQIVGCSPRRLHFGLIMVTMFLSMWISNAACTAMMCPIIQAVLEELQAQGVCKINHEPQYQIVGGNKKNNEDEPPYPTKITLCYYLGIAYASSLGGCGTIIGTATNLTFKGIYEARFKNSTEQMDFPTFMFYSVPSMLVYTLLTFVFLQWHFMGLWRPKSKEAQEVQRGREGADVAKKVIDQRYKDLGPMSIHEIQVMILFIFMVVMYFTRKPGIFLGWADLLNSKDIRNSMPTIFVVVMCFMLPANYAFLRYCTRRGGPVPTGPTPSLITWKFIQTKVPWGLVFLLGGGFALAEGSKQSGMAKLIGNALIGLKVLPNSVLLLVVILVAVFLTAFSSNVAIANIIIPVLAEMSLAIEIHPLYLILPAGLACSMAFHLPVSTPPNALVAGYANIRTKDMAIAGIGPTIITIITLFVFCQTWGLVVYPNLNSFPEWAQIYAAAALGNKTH
Sequence of zebrafish NaCT (A0A2R8QQN0 2-582 K78Q): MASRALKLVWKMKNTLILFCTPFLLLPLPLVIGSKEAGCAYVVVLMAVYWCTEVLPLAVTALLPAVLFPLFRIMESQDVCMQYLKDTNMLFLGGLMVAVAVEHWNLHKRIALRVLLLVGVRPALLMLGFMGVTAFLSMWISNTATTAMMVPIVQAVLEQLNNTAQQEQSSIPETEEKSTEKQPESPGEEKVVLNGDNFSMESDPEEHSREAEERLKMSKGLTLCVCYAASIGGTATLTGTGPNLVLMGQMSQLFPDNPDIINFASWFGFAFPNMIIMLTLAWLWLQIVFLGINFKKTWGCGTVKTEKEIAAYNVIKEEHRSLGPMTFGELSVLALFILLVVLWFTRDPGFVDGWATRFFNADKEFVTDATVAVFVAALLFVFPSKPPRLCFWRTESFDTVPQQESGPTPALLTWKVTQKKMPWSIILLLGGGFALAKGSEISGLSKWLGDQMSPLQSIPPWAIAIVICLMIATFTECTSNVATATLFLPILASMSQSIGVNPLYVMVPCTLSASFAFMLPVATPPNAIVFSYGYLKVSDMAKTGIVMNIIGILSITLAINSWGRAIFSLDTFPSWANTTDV
T4 sequence (Q86YT5 whole entry): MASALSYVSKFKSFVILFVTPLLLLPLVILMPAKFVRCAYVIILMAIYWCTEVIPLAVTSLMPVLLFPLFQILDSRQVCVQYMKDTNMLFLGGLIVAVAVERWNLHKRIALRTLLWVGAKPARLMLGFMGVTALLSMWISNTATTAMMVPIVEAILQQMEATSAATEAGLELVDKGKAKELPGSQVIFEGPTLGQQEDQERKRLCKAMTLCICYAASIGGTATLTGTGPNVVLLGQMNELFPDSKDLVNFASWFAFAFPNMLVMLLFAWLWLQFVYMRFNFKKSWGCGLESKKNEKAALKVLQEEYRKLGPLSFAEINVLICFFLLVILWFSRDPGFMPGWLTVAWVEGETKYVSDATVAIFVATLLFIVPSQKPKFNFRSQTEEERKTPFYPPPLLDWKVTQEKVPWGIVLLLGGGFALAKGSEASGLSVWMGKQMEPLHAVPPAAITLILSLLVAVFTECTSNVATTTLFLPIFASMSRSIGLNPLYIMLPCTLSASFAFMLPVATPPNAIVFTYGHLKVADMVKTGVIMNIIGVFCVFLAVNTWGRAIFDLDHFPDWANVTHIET
Sequence of human NaCT (Q86YT5 whole entry): as above

**Q.** Which results are given for `NC(=O)N1c2ccccc2C=Cc2ccccc21` [Carbamazepine, carbamazepine]?
**A.** Citrate uptake, rNaCT (rat NaCT [1]; [5]): 133.5 ± 0.7 pmol/10^6 cells/min; Citrate uptake, rNaCT, percent of corresponding control (rat NaCT [1]; [5]): 90%; Therapeutic plasma levels in humans ([2]; human, in vivo): 20 to 50 µM; Citrate uptake, ceNaCT (ceNaCT; [5]): 45.1 ± 1.5 pmol/10^6 cells/min; Citrate uptake, ceNaCT, percent of corresponding control (ceNaCT; [5]): 104%; Citrate uptake, mNaCT (mouse NaCT; [5]): 43.7 ± 2.0 pmol/10^6 cells/min; Citrate uptake, mNaCT, percent of corresponding control (mouse NaCT; [5]): 103%; Citrate uptake, hNaCT (human NaCT; [5]): 54.1 ± 2.6 pmol/10^6 cells/min; Citrate uptake, hNaCT, percent of corresponding control (human NaCT; [5]): 105%; Citrate uptake, HepG2 cells (NaCT in HepG2 cells; [5]): 10.0 ± 0.2 pmol/min/mg protein; Citrate uptake, HepG2 cells, percent of corresponding control (NaCT in HepG2 cells; [5]): 106%; Citrate uptake, zfNaCT (zebrafish NaCT): 441.0 ± 2.7 (91) pmol/10^6 cells/min; Citrate uptake, zfNaCT, percent of corresponding control (zebrafish NaCT; hrpe cells): 441.0 ± 2.7 (91) percent

**Q.** With `CC(O)C(=O)O` (centres unmarked) [Lactate, lactate] as the molecule, how does the “Substrate-induced currents” value (rat NaCT [3]) read?
**A.** The value was “no or little currents”.

**Q.** What about the “[^14C]Citrate uptake (cDNA-specific)” value (rat NaCT [1]) of the same molecule?
**A.** The value was 89.6 ± 2.0 Pmol/10^6 cells/min.

**Q.** And the “[^14C]Citrate uptake, %” value (rat NaCT [1])?
**A.** Its value is 83%.

**Q.** And the “% Control of cDNA-specific [^3H]succinate uptake” value (drIndy)?
**A.** Its value is 77%.

**Q.** What about the “cDNA-specific [^3H] succinate uptake” value (drIndy) of the same molecule?
**A.** Its value is 111.2 ± 3.2 fmol/106 cells per min.

**Q.** What about the “Competition with [^14C]citrate for ceNaCT-mediated uptake” value (ceNaCT) of the same molecule?
**A.** The value was “only a minimal inhibition”.

**Q.** And the “[^3H]-Succinate transport (NaCT-specific)” value (mouse NaCT)?
**A.** Its value is 0.162 ± 0.008 pmol/10^6 cells/min.

**Q.** And the “[^3H]-Succinate transport, %” value (mouse NaCT)?
**A.** Its value is 111%.

**Q.** And the “[^14C]-Citrate transport (NaCT-specific)” value (mouse NaCT)?
**A.** The value was 29.8 ± 3.4 pmol/10^6 cells/min.

**Q.** What about the “[^14C]-Citrate transport, %” value (mouse NaCT) of the same molecule?
**A.** The value was 78%.

**Q.** And the “[^14C]-Citrate Uptake (cDNA-specific)” value (human NaCT)?
**A.** Its value is 61.2 ± 6.0 pmol/10^6 cells/min.

**Q.** What about the “[^14C]-Citrate Uptake, %” value (human NaCT) of the same molecule?
**A.** Its value is 128%.

**Q.** Which results are given for `O=C(O)/C=C\C(=O)O` [Maleate]?
**A.** [^14C]Citrate uptake (cDNA-specific) (rat NaCT [1]): 78.8 ± 1.5 Pmol/10^6 cells/min; [^14C]Citrate uptake, % (rat NaCT [1]): 73%; % Control of cDNA-specific [^3H]succinate uptake (drIndy): 85%; cDNA-specific [^3H] succinate uptake (drIndy): 123.1 ± 7.6 fmol/106 cells per min; Competition with [^14C]citrate for ceNaCT-mediated uptake (ceNaCT): failed to compete with citrate; [^3H]-Succinate transport (NaCT-specific) (mouse NaCT): 0.165 ± 0.014 pmol/10^6 cells/min; [^3H]-Succinate transport, % (mouse NaCT): 113%; [^14C]-Citrate transport (NaCT-specific) (mouse NaCT): 31.2 ± 2.5 pmol/10^6 cells/min; [^14C]-Citrate transport, % (mouse NaCT): 82%; [^14C]-Citrate Uptake (cDNA-specific) (human NaCT): 58.0 ± 6.7 pmol/10^6 cells/min; [^14C]-Citrate Uptake, % (human NaCT): 121%

**Q.** Which results are given for `CCCC(CCC)C(=O)O` [Valproate, valproate]?
**A.** Citrate uptake, rNaCT, percent of corresponding control (rat NaCT [1]; [5]): 96%; Plasma concentrations / therapeutic plasma levels in humans ([2]; patients under treatment): 300 to 600 µM; Citrate uptake, ceNaCT, percent of corresponding control (ceNaCT; [5]): 106%; Citrate uptake, mNaCT, percent of corresponding control (mouse NaCT; [5]): 100%; Citrate uptake, hNaCT, percent of corresponding control (human NaCT; [5]): 111%; Citrate uptake, HepG2 cells, percent of corresponding control (NaCT in HepG2 cells; [5]): 105%; Citrate uptake, zfNaCT, percent of corresponding control (zebrafish NaCT; [5]): 93.2%

**Q.** Which results are given for `O=C(O)/C=C(/CC(=O)O)C(=O)O` [cis-Aconitate, cis-aconitate]?
**A.** Substrate-induced currents as % of citrate-induced currents (rat NaCT [3]; substrate 0.5 mM): approximately 10%; Competition with [^14C]citrate for ceNaCT-mediated uptake (ceNaCT; competitor 2.5 mM, [14C]citrate 15 μM): did not compete with [^14C]citrate as effectively as unlabelled citrate; [^3H]-Succinate transport (NaCT-specific) (mouse NaCT; [3H]-succinate 0.1 μM, substrate analog 2 mM): 0.062 ± 0.005 pmol/10^6 cells/min; [^3H]-Succinate transport, % (mouse NaCT; [3H]-succinate 0.1 μM, substrate analog 2 mM, control = 100): 43%; [^14C]-Citrate transport (NaCT-specific) (mouse NaCT; [14C]-citrate 10 μM, substrate analog 2 mM): 18.1 ± 1.8 pmol/10^6 cells/min; [^14C]-Citrate transport, % (mouse NaCT; [14C]-citrate 10 μM, substrate analog 2 mM, control = 100): 47%; [^14C]-Citrate Uptake (cDNA-specific) (human NaCT; [14C]-citrate 20 μM, unlabeled compound 2.5 mM): 55.5 ± 3.3 pmol/10^6 cells/min; [^14C]-Citrate Uptake, % (human NaCT; [14C]-citrate 20 μM, unlabeled compound 2.5 mM, none = 100): 116%

**Q.** Which “Effect on NaCT activity in HepG2 cells” value (NaCT in HepG2 cells; treatment of HepG2 cells with tunicamycin) does the source give for tunicamycin here?
**A.** The value was “significant inhibition”.

B1: ceNaCT (Caenorhabditis elegans; I91S/L182M) (protein)
chain: MKPSPQRTLIKKLLVLLGPLVAVPLLFFGPEYRCLFSIIFLSTYWIGEAFPIGVTSLFPLALYPILQIVPSKQISPVYFKDSIVLFMCTLSMAMAVEATGLHRRIALKLLTKVGAKQPVMLLGFMCITSFISFFVSDTACTALMCPTAVALLMSMSDAVQHLKEDHRKPKPPPDDATVAEKMRIDDMTPQDAGFCKALILACAHASLIGGTAIITSTGPNLVFRENIHKRYPEGQVTMTYLQWMVFAIPPMFVYLLASYIILVCYFMGPSTFARWFERPSKEEAHLKKLIEKNIQTMYEDLGDVSWGEKSVFVFFILLIGSWISRDPGFTPGWGDLLPHRNFISDSVSGVLISCILFVWPKDPFDPIDPMAPILKWTDMKSKFSWSCTLLIGAGYAISEGVDKSGLSRLISCGMKNIFVGMSSLPLQLTVTTIIVIMTEFASNVSTGSIFIPISLGVAESMGVHPLYLALPTTVACSFAFMLPISTPPNAVVYDTKVISMVEMIVCGFLLNIACILITSLNMNTWTYFIFSLNIFPENIVISSENSSYPVC
**Q.** With B1 as the molecule, how does the Km [4] read?
**A.** Its Km is 76 ± 14 µM.
